One data set deals with T. b. rhodesiense EATRO3. In words: Acute mouse infection model of T. b. rhodesiense. It counts as in vivo, Balb/c mice. The note with it: for mean survival day (MSD): once per day for four days, untreated died 6th day.
Data set [1] concerns L. major promastigotes. In words: Cell size and DNA content analysis in Leishmania (flow cytometry). The format is cell-based, Leishmania major. As to the method:
L. major log phase promastigotes were inoculated at a concentration of 10^6 cells/ml into media with compounds as indicated, and incubated overnight with varying drug concentrations to assess cell size and DNA content. For cell size, forward scatter of live promastigotes was measured by a FACS flow cytometer (Becton Dickinson), utilizing dye exclusion with 5 μg/ml propidium iodide (PI) to gate for live cells. DNA content was determined by flow cytometry using fixed and permeabilized L. major stained with PI as previously described, but reducing the incubation time with PI and RNase A from 1 hour to 30 minutes. Histogram analysis was performed using CellQuest 3.1 software (BD Bioscience).
In general terms: A flow cytometer gives signals particle by particle.

Data set [2] concerns Leishmania. In words: Leishmania growth inhibition summarised across both species and stages. The format is cell-based. The note with it: range over L. major and L. donovani, promastigotes and amastigotes; read-out: inhibition of Leishmania across both species and stages.
The subject of the next data set is T. b. brucei Lister 927. The data set can be described thus: Potency assessment against T. b. brucei Lister 927. It counts as cell-based, Trypanosoma brucei brucei. The settings on record: Table 3. How it is done: Assays were performed using the strain of T. brucei brucei Lister 427 adapted to the laboratory, and the human-infective strain T. b. rhodesiense (EATRO3 ETat1.2 TREU164 [37]). Both strains were grown and tested as bloodstream forms. To establish the EC50, cultures of Trypanosoma brucei and T. b. rhodesiense were treated with two-fold increasing concentrations of compounds (with similar DMSO increasing concentration as control). Cell populations were measured at 72 hours with an Infinite F200 microplate reader (Tecan Austria GmbH, Austria); the determination of cell viability was carried out by the established colorimetric technique AlamarBlue® with modifications, a 96-well plate format spectrophotometric assay which measures the ability of living cells to reduce resazurin [38,39]. Data obtained with T. b. brucei Lister 427 were confirmed by manual counting in a Neubauer chamber for a direct microscopic examination to rule out multinucleated phenotypes that could mask the colorimetric assays, as well as the subtraction of solvent background to dismiss a potential solvent-derived fluorescence. Pentamidine was used as drug control for potency comparison, and T. b. brucei Lister 927 strain was included in our experiments to evaluate the adaptation to medium for the different strains as a variable condition.

Data set [3] concerns T. brucei gambiense, ELIANE strain. The data set can be described thus: Potency assessment against T. b. gambiense ELIANE bloodstream form. It counts as cell-based, Trypanosoma brucei gambiense.
The next data set relates to human cells. The note with it: literature, Table 1; read-out: Inhibition of Cell Growth EC50; cited from earlier work.
Data set [4] concerns L. major promastigotes. In words: Potency assessment against Leishmania major promastigotes (growth, cell counting). The format is cell-based. The settings on record: promastigotes, average of three replicates; read-out: Effective concentration (EC50) L. major.
For another data set, the system named is T. cruzi Y strain. The data set can be described thus: Mouse model of T. cruzi infection (luciferase imaging). It counts as in vivo, Balb/c mice. The note with it: 30 mg/kg, 5 days, intraperitoneal. How it is done:
(§1) The targeted dosage of inhibitors was determined based on the pharmacokinetic studies disclosed by Maira, et al.. […] For L. major, 12.5 mg/kg orally was the highest tolerable dose while 30 mg/kg intraperitoneally was used for the T. cruzi infections. A lower dose was initially used in T. brucei, 5 or 10 mg/kg intraperitoneally.
Balb/c mice were inoculated intraperitoneally with 10^5 trypomastigotes from T. cruzi Y strain expressing firefly luciferase (kindly provided by Dr. Barbara Burleigh, Harvard University). On day 7 post-infection, mice were anesthetized with ketamine/xylazine and injected with 3 mg of D-Luciferin Potassium Salt (Gold Biotechnology) at 20 mg/ml in PBS and imaged in the IVIS Lumina II (Caliper Life Sciences). […] Mice were treated for 5 days and imaged again on day 13. Data is expressed as the ratio between luciferase units in day 13 versus day 7 to determine the progression of infection with and without drug treatment.

The subject of data set [5] is free T. cruzi trypomastigotes. The data set can be described thus: T. cruzi extracellular survival of free trypomastigotes (24 h, CPRG). It counts as cell-based, Trypanosoma cruzi. As to the method: T. cruzi trypomastigotes from the Tulahuen strain stably expressing the β-galactosidase gene were obtained from the supernatant of infected cultures of LLC-MK2 cells harvested between days 5 and 7. To remove amastigotes, trypomastigotes were allowed to swim out of the pellet of samples that had been centrifuged for 7 min at 2500 rpm.
Free trypomastigotes were rinsed once and placed in 96-well plates at 100,000/well with the compounds in a final volume of 200 μl of DMEM without phenol red supplemented with 2% FBS, Pen-Strep-Glut and 100 μM CPRG. Plates were incubated for 24 h at 37° C. and absorbance was read at 590 nm.

The next data set deals with L. major. The data set can be described thus: Mouse model of L. major infection (bioluminescent imaging). The format is in vivo, Balb/c mice. How it is done:
as §1
Mouse experiments were done in compliance with policies approved by the Animal Review Board at Washington University. Mice were infected with luciferase expressing L. major (LmFV1LucTK-1) and analyzed by bioluminescent imaging as described. Balb/c mice were infected with 10^5 L. major metacyclic stage parasites purified by gradient centrifugation. Luminescence was measured using an IVIS 100 instrument and analyzed with Living Image software version 2.60.

Data set [6] has as its system T. brucei brucei Lister 427 bloodstream cells. In words: Morphological and cell cycle alterations in T. brucei (flow cytometry). It counts as cell-based, Trypanosoma brucei brucei. As to the method: Flow cytometry was used to assess cell size and DNA content, to reveal a G1 arrest and inhibition of protein synthesis or G2 arrest and multinucleated cells. […]. After permeabilization with […], saponin (0.5 mg/mL final concentration), the culture was RNAse treated for 30 minutes (10 μg/mL final concentration) and stained with 20 μg/mL propidium iodide immediately before its acquisition in a FACscan cytometer. Cells incubated with equivalent concentration of drug solvent (DMSO) were included in each experiment as control population.

In another data set the test system is T. cruzi trypomastigotes. In words: T. cruzi intracellular replication in NIH/3T3 host cells (β-galactosidase, CPRG). It counts as cell-based, Trypanosoma cruzi.
The next data set has as its system T. b. rhodesiense. In words: Potency assessment against T. b. rhodesiense EATRO3 bloodstream form (AlamarBlue, 72 h). It counts as cell-based, Trypanosoma brucei rhodesiense. In general terms: Alamar Blue is a resazurin reagent that responds to reducing activity.
Data set [7] relates to L. donovani promastigotes. In words: Potency assessment against Leishmania donovani promastigotes (growth, cell counting). The settings on record: promastigotes, average of three replicates; read-out: Effective concentration (EC50) L. donovani promastigotes. It counts as cell-based.
In data set [8] the test system is L. donovani axenic amastigotes. The data set can be described thus: Potency assessment against Leishmania donovani axenic amastigotes (growth, cell counting). It counts as cell-based. The settings on record: axenic amastigotes, average of three replicates; read-out: Effective concentration (EC50) L. donovani axenic amastigotes.
Data set [9] concerns T. brucei brucei Lister 427. The data set can be described thus: Potency assessment against T. brucei brucei Lister 427 bloodstream form (AlamarBlue, 72 h). It counts as cell-based, Trypanosoma brucei brucei.
The subject of data set [10] is Leishmania. The note with it: methods similar to those described here; cited from earlier work.

Entries after “also recorded” stand apart in the source; their conditions may differ. Where two headings read alike, the source gives them in different places. Some results are limits rather than exact numbers.

For the molecule NVP-BEZ235, the “mean survival day (MSD)” value with T. b. rhodesiense EATRO3 (5 mg/kg intraperitoneal) is 10.8 (±2.4) days; with T. b. rhodesiense EATRO3 (10 mg/kg intraperitoneal), 13.4 (±3.3) days. Further, the parasites eliminated in the data set on T. b. rhodesiense EATRO3 (10 mg/kg, for four days) was found to be 80%. Also, the parasitemia in the data set on T. b. rhodesiense EATRO3 (5 or 10 mg/kg intraperitoneal, within two days, detection limit) was < 10^4 parasites/mL. In the data set on L. major promastigotes [1], the “effect on cell size and DNA content, L. major promastigotes” value is “G2 growth arrest and increased promastigote size”. The EC50 with Leishmania [2] is 70 to 140 nM; in the data set with T. b. brucei Lister 927 it was 1.7 ± 0.5 nM; in [3] (Table 3, read-out: EC50 T. b. gambiense ELIANE), 0.18 ± 0.2 nM; in [3] (read-out: EC50 against BSF T. brucei gambiense ELIANE), 0.179 nM; with human cells it was 50 nM; in the data set with L. major promastigotes [4], 110 ± 50 nM. For the same molecule, the EC50 in data set [5] (non-replicating, outside host cells, read-out: EC50 against free trypomastigotes) is over 50000 nM; in the data set on T. cruzi trypomastigotes (read-out: EC50 T. cruzi infection of host cell fibroblasts), 120 nM; in the data set on T. b. rhodesiense (Table 3, read-out: EC50 T. b. rhodesiense EATRO3) it was 0.73 ± 0.06 nM; with T. b. rhodesiense (bloodstream form, cell printed in nM, read-out: Effective concentration (EC50) T. b. rhodesiense), 0.73 ± 0.06 nM; in the data set on T. b. rhodesiense (read-out: activity against EATRO3 strain of T. b. rhodesiense), 0.73 nM; in [7] it was 140 ± 80 nM. In addition, the EC50 in [8] is 70 ± 40 nM; in data set [9] (Table 3, read-out: EC50 T. b. brucei 427) it was 16.3 ± 4.7 nM; in data set [9] (bloodstream form, cell printed in nM, read-out: Effective concentration (EC50) T. b. brucei), under 10 nM. Moreover, the “efficacy against T. cruzi infection” value in the data set with T. cruzi Y strain is listed as “no efficacy”. In addition, in data set [5], the “activity against free, non-replicating T. cruzi trypomastigotes in words” value was “inactive”. In addition, the “body weight of drug-treated mice” value with L. major (12.5 mg/kg/day oral gavage, L. major infected mice) is listed as “significant weight loss; also recorded: severe weight loss”. Further, in the data set on L. major (12.5 mg/kg/day, 10 days, oral gavage), the “efficacy against L. major infection” value was “no efficacy; also recorded: no therapeutic effect”. The “lethality at higher doses” value in the data set with L. major (dosing intraperitoneally at 25 mg/kg/day (higher drug doses)) is “lethal”. The highest tolerable dose with L. major (orally, L. major mouse model) is listed as 12.5 mg/kg. The “effect on cellular DNA content / cell cycle, T. b. brucei” value in data set [6] is “appearance of zoids (anucleated cells) [59] and multinucleated cells; also recorded: reduction of G1 and G2 cells”. Further, the “amastigote lysis within host cells” value in the data set with T. cruzi trypomastigotes (350 nM, after three days, NIH-3T3 host cells) is “amastigotes lysis within host cells was observed”. In addition, the “potency against BSF T. brucei brucei in words” value in data set [9] (Lister 427) is “nanomolar potency”.

Take `C[C@@H]1[C@H](O)[C@@H](C)/C=C/C=C/C=C/C=C/C=C/C=C/C=C/[C@H](O[C@@H]2O[C@H](C)[C@@H](O)[C@H](N)[C@@H]2O)C[C@@H]2O[C@](O)(C[C@@H](O)C[C@@H](O)[C@H](O)CC[C@@H](O)C[C@@H](O)CC(=O)O[C@H]1C)C[C@H](O)[C@H]2C(=O)O` [amphotericin B]: the “potency of anti-leishmanial agent” value in the data set with Leishmania [10] is listed as 30 nM.

Take `N=C(N)c1ccc(OCCCCCOc2ccc(C(=N)N)cc2)cc1` [Pentamidine]: the EC50 in the data set with T. b. brucei Lister 927 (Trypanosoma brucei) came to 30.3 ± 10.4 nM; in data set [3] (Trypanosoma brucei, GAMBIENSE, Table 3, read-out: EC50 T. b. gambiense ELIANE) it was 2.5 ± 0.5 nM; with T. b. rhodesiense (Trypanosoma brucei, RHODESIENSE, Table 3, read-out: EC50 T. b. rhodesiense EATRO3), 3.7 ± 0.4 nM; in data set [9] (Trypanosoma brucei, Table 3, read-out: EC50 T. b. brucei 427), 4.2 ± 0.2 nM.

The values above are taken from patent US20130296316A1, “Antiparasitic Agents Based On mTOR Inhibitors” (priority 2010, published 2013).
